The record followed here is patent publication US10874104B2, “Pesticidally active pryazole derivatives” (SYNGENTA PARTICIPATIONS AG, priority 2016, dated 2020).

Holding throughout (type): in vivo
Assay [1] has as its system Diabrotica balteata (Corn Root Worm). Description: Diabrotica balteata (corn root worm), sprayed maize sprouts on agar, mortality. The following applies: 96 h, application rate 200 ppm, L2 larvae, 4 days after infestation, read-out: mortality. Here is the method: Diabrotica balteata (Corn Root Worm):
Maize sprouts placed onto an agar layer in 24-well microtiter plates were treated with aqueous test solutions prepared from 10′000 ppm DMSO stock solutions by spraying. After drying, the plates were infested with L2 larvae (6 to 10 per well). The samples were assessed for mortality 4 days after infestation.

Assay [2] concerns Euschistus heros (Neotropical Brown Stink Bug). The assay can be described thus: Euschistus heros (neotropical brown stink bug), feeding/contact activity, mortality. The settings on record: 120 h, application rate 200 ppm, N2 nymphs, 5 days after infestation, read-out: mortality. The procedure: Euschistus heros (Neotropical Brown Stink Bug): Feeding/contact activity
Soybean leaves on agar in 24-well microtiter plates were sprayed with aqueous test solutions prepared from 10′000 ppm DMSO stock solutions. After drying the leaves were infested with N2 nymphs. The samples were assessed for mortality 5 days after infestation.

Assay [3] relates to Myzus persicae (Green Peach Aphid). Description: Myzus persicae (green peach aphid), feeding/contact activity, mortality. The following applies: 144 h, application rate 200 ppm, aphid population of mixed ages, 6 days after infestation. Here is the method: Myzus persicae (Green Peach Aphid): Feeding/Contact Activity
Sunflower leaf discs were placed onto agar in a 24-well microtiter plate and sprayed with aqueous test solutions prepared from 10′000 ppm DMSO stock solutions. After drying, the leaf discs were infested with an aphid population of mixed ages. The samples were assessed for mortality 6 days after infestation.

Assay [4] deals with Plutella xylostella (Diamond Back Moth). The assay can be described thus: Plutella xylostella (diamond back moth), feeding/contact activity on artificial diet, mortality. The settings on record: 120 h, application rate 200 ppm, L2 larvae on artificial diet, 5 days after infestation, read-out: mortality. Here is the method: Plutella xylostella (Diamond Back Moth): Feeding/Contact Activity
24-well microtiter plates with artificial diet were treated with aqueous test solutions prepared from 10′000 ppm DMSO stock solutions by pipetting. After drying, the plates were infested with L2 larvae (10 to 15 per well). The samples were assessed for mortality 5 days after infestation.

Assay [5] concerns Spodoptera littoralis (Egyptian Cotton Leaf Worm). Description: Spodoptera littoralis (Egyptian cotton leaf worm), feeding/contact activity, mortality. The following applies: 72 h, application rate 200 ppm, L1 larvae, 3 days after infestation, read-out: mortality. The procedure:
Spodoptera littoralis (Egyptian Cotton Leaf Worm): Feeding/Contact Activity
Cotton leaf discs were placed onto agar in 24-well microtiter plates and sprayed with aqueous test solutions prepared from 10′000 ppm DMSO stock solutions. After drying the leaf discs were infested with five L1 larvae. The samples were assessed for mortality 3 days after infestation.

Assay [6] concerns Tetranychus urticae (Two-Spotted Spider Mite). Description: Tetranychus urticae (two-spotted spider mite), feeding/contact activity, mortality. The following applies: 192 h, application rate 200 ppm, mixed population (mobile stages), 8 days after infestation. Here is the method:
Tetranychus urticae (Two-Spotted Spider Mite): Feeding/Contact Activity
Bean leaf discs on agar in 24-well microtiter plates were sprayed with aqueous test solutions prepared from 10′000 ppm DMSO stock solutions. After drying the leaf discs were infested with a mite population of mixed ages. The samples were assessed for mortality on mixed population (mobile stages) 8 days after infestation.

Assay [7] concerns Thrips tabaci (Onion Thrips). Description: Thrips tabaci (onion thrips), feeding/contact activity, mortality. The settings on record: 144 h, application rate 200 ppm, thrips population of mixed ages, 6 days after infestation, read-out: mortality. Here is the method: Thrips tabaci (Onion Thrips): Feeding/Contact Activity
Sunflower leaf discs were placed on agar in 24-well microtiter plates and sprayed with aqueous test solutions prepared from 10′000 ppm DMSO stock solutions. After drying the leaf discs were infested with a thrips population of mixed ages. The samples were assessed for mortality 6 days after infestation.

For assay [8], the system named is Plutella xylostella (Diamond Back Moth, Larvicide L-2/3). Description: Biological comparison: insecticidal activity against Plutella xylostella, larvicide L-2/3, sprayed Chinese cabbage plants. The following applies: 120 h. Here is the method:
Biological Comparison Data:
Compound A is disclosed in WO2014/122083 as example (Ic-2) (p. 82, Table 3). The activities of compounds A is compared with the activities of compound 41 and 42, according to the present invention. The tests are carried out at different concentrations (ppm).
a) Insecticidal Activity Against Plutella xylostella (Diamond Back Moth, Larvicide L-2/3, Feeding/Contact)
Chinese cabbage plants are sprayed with diluted test solutions in an application chamber. 1 day after treatment, excised leaves are placed in petri dishes and infested with 10 L2 (2 replicates). Samples are checked 5 days after infestation for mortality, feeding behavior, and growth regulation.

Where [9] appears, read: concentration 0.0125 ppm, L2 larvae, 5 days after infestation, read-out: Mortality (%).
The mark [10] stands for this setting: concentration 0.05 ppm, L2 larvae, 5 days after infestation, read-out: Mortality (%).
Where [11] appears, read: concentration 0.2 ppm, L2 larvae, 5 days after infestation, read-out: Mortality (%).
[12] abbreviates: concentration 0.8 ppm, L2 larvae, 5 days after infestation, read-out: Mortality (%).

Where two headings read alike, the source gives them in different places. Where only a bound is given, the exact number is not on record here.

One may read the mortality as the share of the test organisms that died. `Cn1nc(C(F)(F)C(F)(F)F)c(C2CC2)c1-n1cc(-c2ccc(Cl)c(C(=O)NC3(C#N)CC3)c2)cn1` [Compound 9]: the mortality at 200 ppm in assay [1], in assay [2], in assay [3], in assay [4], in assay [5] and in assay [6] was not below 80% throughout. Further, the mortality at 200 ppm in assay [7] is not below 80%.
For the compound `C=Cc1c(C(F)(F)C(F)(F)F)nn(C)c1-n1cc(-c2ccc(Cl)c(C(=O)NC3CC3)c2)cn1` [Compound 16, 2-Chloro-N-cyclopropyl-5-[1-[2-methyl-5-(1,1,2,2,2-pentafluoroethyl)-4-vinyl-pyrazol-3-yl]pyrazol-4-yl]benzamide], the mortality at 200 ppm in assay [1], in assay [2], in assay [3], in assay [4], in assay [5] and in assay [6] was not below 80% throughout. In assay [7], the mortality at 200 ppm was not below 80%.
Consider `Cn1nc(C(F)(F)C(F)(F)F)c(SC2CC2)c1-n1cc(-c2ccc(Cl)c(C(=O)NC3(C#N)CC3)c2)cn1` [Compound 19], for which the mortality at 200 ppm in assay [1], in assay [2], in assay [3], in assay [4], in assay [5] and in assay [6] was not below 80% throughout. Besides, in assay [7], the mortality at 200 ppm was not below 80%.
On to `Cn1nc(C(F)(F)C(F)(F)F)c(SC2CC2)c1-n1cc(-c2ccc(Cl)c(C(=O)NC3CC3)c2)cn1` [Compound 20], for which the mortality at 200 ppm in assay [1], in assay [2], in assay [3], in assay [4], in assay [5] and in assay [6] was not below 80% in each case. Also, the mortality at 200 ppm in assay [7] is not below 80%.
`Cn1nc(C(F)(F)C(F)(F)F)c(OC(F)F)c1-n1cc(-c2cnc(Cl)c(C(=O)NC3(C#N)CC3)c2)cn1` [Compound 21]: the mortality at 200 ppm in assay [1], in assay [2], in assay [3], in assay [4], in assay [5] and in assay [6] was not below 80% in each case.
Regarding `Cn1nc(C(F)(F)C(F)(F)F)c(OC(F)F)c1-n1cc(-c2cnc(Cl)c(C(=O)NC3CC3)c2)cn1` [Compound 22], the mortality at 200 ppm in assay [1], in assay [2], in assay [3], in assay [4], in assay [5] and in assay [6] was not below 80% each time. In assay [7], the mortality at 200 ppm is not below 80%.
Consider `Cn1nc(C(F)(F)C(F)(F)F)c([S+]([O-])C2CC2)c1-n1cc(-c2ccc(Cl)c(C(=O)NC3CC3)c2)cn1` (centres unmarked) [Compound 34], for which the mortality at 200 ppm in assay [1], in assay [2], in assay [3], in assay [4], in assay [5] and in assay [6] was not below 80% each time. The mortality at 200 ppm in assay [7] is not below 80%.
On to `Cn1nc(C(F)(F)C(F)(F)F)c([S+]([O-])C2CC2)c1-n1cc(-c2ccc(Cl)c(C(=O)NC3(C#N)CC3)c2)cn1` (centres unmarked) [Compound 36], for which the mortality at 200 ppm in assay [1], in assay [2], in assay [3], in assay [4], in assay [5] and in assay [6] was not below 80% each time. Also, the mortality at 200 ppm in assay [7] was not below 80%.
With `CN(C(=O)c1cc(-c2cnn(-c3c(OC(F)F)c(C(F)(F)C(F)(F)F)nn3C)c2)ccc1Cl)C1(C#N)CC1` [Compound 41], the mortality at 200 ppm in assay [1], in assay [2], in assay [4], in assay [5], in assay [6] and in assay [7] was not below 80% in each case. In assay [8] (setting [9]), the mortality at 0.0125 ppm was found to be 90%. For the same compound, in assay [8] (setting [10]), the mortality at 0.05 ppm worked out at 100%. Moreover, the mortality at 0.2 ppm in assay [8] (setting [11]) was 100%. Further, the mortality at 0.8 ppm in assay [8] (setting [12]) was found to be 100%.
In the case of `CCN(C(=O)c1cc(-c2cnn(-c3c(OC(F)F)c(C(F)(F)C(F)(F)F)nn3C)c2)ccc1Cl)C1(C#N)CC1` [Compound 42], the mortality at 200 ppm in assay [1], in assay [2], in assay [3], in assay [4], in assay [5] and in assay [6] was not below 80% each time. Besides, the mortality at 200 ppm in assay [7] is not below 80%. The mortality at 0.0125 ppm in assay [8] (setting [9]) amounted to 95%. Further, the mortality at 0.05 ppm in assay [8] (setting [10]) is 100%. In assay [8] (setting [11]), the mortality at 0.2 ppm came out at 100%. Besides, in assay [8] (setting [12]), the mortality at 0.8 ppm was 100%.
In assay [8], `Cn1nc(C(F)(F)C(F)(F)F)c(C(F)(F)F)c1-n1cc(-c2ccc(Cl)c(C(=O)NC3(C#N)CC3)c2)cn1` [Cpd A, reference compound] yielded a mortality at 0.0125 ppm of 35%, a mortality at 0.05 ppm of 85%, a mortality at 0.2 ppm of 100% and a mortality at 0.8 ppm of 100%.
